Patent US9822170B2, “Co-use of a clusterin inhibitor with an EGFR inhibitor to treat cancer” (ALETHIA BIOTHERAPEUTICS INC., priority 2012, dated 2017)

B1: 16B5: murine anti-clusterin (sCLU) antibody that blocks EMT; VL SEQ ID NO.:25, VH SEQ ID NO.:29 (antibody, V domains shown)
VH: EVQLQQSGAELVKPGASVRLSCTTSGFNIKDIYMHWVKQRPEQGLEWIGRIDPAYGNTKYDPKFQGKATITADTSSNTAYLQLSSLTSEDTAVYYCARRYDTAMDYWGQGTSVTVSS
VL: DIVMSQSPSSLAVSAGEKVTMSCKSSQSLLNSRTRKNYLAWYQQKPGQSPKLLIYWASTRESGVPDRFTGSGSGTDFTLTISSVQAEDLAVYYCKQSYNLWTFGGGTKLEFK
modifications: murine 16B5 heavy chain variable region; murine 16B5 light chain variable region

Tests used:
H1299 cells = assay: CellTiter-Glo Luminescent Cell Viability Assay; assay type: cell-based, human
Method: (§1) Following this induction, the cells were treated with erlotinib (20 μM) for 96 h and the number of cells was determined using the CellTiter-Glo® Luminescent Cell Viability Assay (Promega, Madison, Wis.). As a control, additional cells were not induced with sCLU or TGFβ. […] We also compared the response to erlotinib in cells that were induced to undergo an EMT with either sCLU or TGFβ.

H460 cells = assay: CellTiter-Glo Luminescent Cell Viability Assay; assay type: cell-based, human; conditions: sCLU 0.25 μg/ml or TGFβ 2 nM for 48 h, then erlotinib 20 μM for 96 h
Method: as §1

cancer cells = conditions: incubated with cancer cells; WO2007/030930, WO2011/063523; cited from earlier work

| Molecule | responsiveness to erlotinib after stimulation of EMT (H1299 cells; H1299 cells, sCLU 0.25 μg/ml or TGFβ 2 nM for 48 h, then erlotinib 20 μM for 96 h) | sensitivity of the cells to erlotinib (H1299 cells; H1299 compared with H460 cells, erlotinib 20 μM for 96 h) | responsiveness to erlotinib after stimulation of EMT (H460 cells) | blocking of EMT (maintenance of membrane E-cadherin expression) (cancer cells) |
| --- | --- | --- | --- | --- |
| C#Cc1cccc(Nc2ncnc3cc(OCCOC)c(OCCOC)cc23)c1 [erlotinib] | did not change the responsiveness | H1299 cells were more sensitive to erlotinib than the H460 cells | did not change the responsiveness | – |
| B1 | – | – | – | could block EMT |
